Legend:
[1] = target: Ba/F3 ERBB2 YVMA (Homo sapiens, UniProt P04626, DUP772-775, cells depend on it); assay: Cell viability assay (CellTiter Glo), Ba/F3 cells engineered to express ERBB2 YVMA; format: cell-based, mouse; settings: Ba/F3 cells expressing human ERBB2 YVMA mutant, 72 hours, read-out: Ba/F3 ERBB2 YVMA, IC50
Method: Cells were treated with compounds, and cell viability was measured as a metric of kinase inhibition.
BT-474, A431, MDA-MB-175VII, NCI-H1781, MCF7, and Ba/F3 cell lines were tested. The Ba/F3 cell line is IL-3-dependent mouse cell line derived from the C3H mouse strain. Ba/F3 cell lines were engineered to express human ERBB2 or EGFR kinases, rendering the cells IL-3 independent. The lines were generated via retroviral transduction utilizing a Moloney murine leukemia virus (MMLV) promoter, and constructs are stably integrated into the cell genome. The sequences of the ERBB2 and EGFR genes used were NCBI Reference Sequences NM_004448.3 and NM_005228.3, respectively.
BT-474, A431, MDA-MB-175VII, NCI-H1781 and MCF7 cells were grown in the appropriate growth medium as described in Table B2 below, and harvested at 50-80% confluence. BT-474, A431, MDA-MB-175VII, NCI-H1781 and MCF7 cells were counted and seeded at 2,000 or 1,500 cells per well in 384-well tissue culture plates (see Table B2). Similarly, Ba/F3 cell lines engineered to express EGFR, ERBB2, or ERBB2 mutants were grown, harvested, counted and seeded at 3000 cells per well in 96-well plates. A subset of wells contained media only (low control, “LC”).
Table B1 provides the growth media and number of cells seeded per well for the each cell line.
Compounds were dissolved in DMSO and serially diluted. Serially-diluted compound or a DMSO only control (high control, “HC”) was added to the plated cells in each well. Compounds were tested at concentrations of about 10 μM to 0.51 nM, using three-fold dilutions. The final proportion of DMSO never exceeded 0.1%.
Plates were placed in a 37° C., 5% CO2 incubator for 72 hours. Plates were then removed from the incubator and equilibrated for 15 minutes at room temperature. 40 μl of CellTiter Glo reagent (Promega) was added to measure the relative level of metabolically active cells by quantifying intracellular ATP concentrations. Plates were incubated for 30 minutes at room temperature, and luminescence was measured. Percent viability was normalized to a vehicle control only using the following formula: % viability=100×(Lumsample−LumLC)/(LumHC−LumLC). Graphical curves were fitted using a nonlinear regression model with a sigmoidal dose response.

[2] = target: T1, phosphorylated ERBB2 (pERBB2) (Homo sapiens, UniProt P04626); assay: Detection of phosphorylated ERBB2 (pERBB2) by ELISA in BT-474 cells; format: cell-based; settings: four hour incubation
T1 construct: endogenous in cells; host or cells: BT-474
Procedure, shortened: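 BT-474 cells were treated with compounds (fourfold dilutions, 10 μM to 0.01 nM final) for 4 h at 37 °C, then lysed. pERBB2 in lysates was quantified by ELISA with an HRP anti-phosphotyrosine detection antibody and TMB read at 450 nm; % relative activity was normalized to no-cell and 0.1% DMSO controls.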

[3] = target: T2, phosphorylated EGFR (pEGFR) (Homo sapiens, UniProt P00533); assay: Detection of phosphorylated EGFR (pEGFR) by AlphaLISA in EGF-stimulated A431 cells; format: cell-based; settings: A431 cells (10% FBS), 4 hours incubation, EGF 30 ng/mL for 10 minutes
T2 construct: performed to measure phosphorylated EGFR levels using A431 cells (10% FBS); endogenous in cells; host or cells: A431
Procedure, shortened: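 pEGFR was quantified by AlphaLISA in lysates of A431 cells (10% FBS) given a 10 min pulse of EGF at 30 ng/mL after 4 h compound exposure at 37 °C. IC50 came from a four-parameter fit of % inhibition between DMSO and staurosporine controls.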

T1 sequence (P04626 23-1255): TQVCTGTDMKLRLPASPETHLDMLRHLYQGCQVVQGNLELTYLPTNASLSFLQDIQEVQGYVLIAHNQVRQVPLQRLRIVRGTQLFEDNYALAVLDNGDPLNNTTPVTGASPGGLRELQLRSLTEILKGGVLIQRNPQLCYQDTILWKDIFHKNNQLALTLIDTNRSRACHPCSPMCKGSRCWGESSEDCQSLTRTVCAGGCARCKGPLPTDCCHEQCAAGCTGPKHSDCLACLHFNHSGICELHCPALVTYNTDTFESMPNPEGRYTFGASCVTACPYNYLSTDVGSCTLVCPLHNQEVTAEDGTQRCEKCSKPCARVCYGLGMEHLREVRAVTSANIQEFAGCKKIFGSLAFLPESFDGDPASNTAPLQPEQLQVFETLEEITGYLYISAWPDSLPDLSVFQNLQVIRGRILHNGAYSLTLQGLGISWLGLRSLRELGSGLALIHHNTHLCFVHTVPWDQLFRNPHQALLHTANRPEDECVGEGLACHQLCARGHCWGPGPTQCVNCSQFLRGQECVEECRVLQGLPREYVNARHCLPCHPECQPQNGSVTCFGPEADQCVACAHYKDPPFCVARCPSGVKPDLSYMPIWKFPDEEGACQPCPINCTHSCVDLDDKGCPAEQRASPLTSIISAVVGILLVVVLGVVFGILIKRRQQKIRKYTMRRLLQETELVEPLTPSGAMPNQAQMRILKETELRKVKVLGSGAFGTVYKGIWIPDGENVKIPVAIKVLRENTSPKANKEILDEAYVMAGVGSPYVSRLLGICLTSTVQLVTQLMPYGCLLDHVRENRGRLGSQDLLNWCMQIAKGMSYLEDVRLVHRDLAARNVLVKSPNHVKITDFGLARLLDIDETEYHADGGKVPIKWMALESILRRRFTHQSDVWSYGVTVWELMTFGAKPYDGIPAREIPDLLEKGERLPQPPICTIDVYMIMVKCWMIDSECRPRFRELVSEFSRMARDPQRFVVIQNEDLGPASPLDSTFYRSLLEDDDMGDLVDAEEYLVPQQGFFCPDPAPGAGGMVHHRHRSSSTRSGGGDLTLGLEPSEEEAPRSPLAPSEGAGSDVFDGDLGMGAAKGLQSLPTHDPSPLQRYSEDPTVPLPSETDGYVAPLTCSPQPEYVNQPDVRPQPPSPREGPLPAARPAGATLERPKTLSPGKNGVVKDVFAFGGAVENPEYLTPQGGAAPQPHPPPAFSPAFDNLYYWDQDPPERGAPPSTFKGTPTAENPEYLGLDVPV
Ba/F3 ERBB2 YVMA, sequence (P04626 with tags, fused parts or gaps DUP772-775): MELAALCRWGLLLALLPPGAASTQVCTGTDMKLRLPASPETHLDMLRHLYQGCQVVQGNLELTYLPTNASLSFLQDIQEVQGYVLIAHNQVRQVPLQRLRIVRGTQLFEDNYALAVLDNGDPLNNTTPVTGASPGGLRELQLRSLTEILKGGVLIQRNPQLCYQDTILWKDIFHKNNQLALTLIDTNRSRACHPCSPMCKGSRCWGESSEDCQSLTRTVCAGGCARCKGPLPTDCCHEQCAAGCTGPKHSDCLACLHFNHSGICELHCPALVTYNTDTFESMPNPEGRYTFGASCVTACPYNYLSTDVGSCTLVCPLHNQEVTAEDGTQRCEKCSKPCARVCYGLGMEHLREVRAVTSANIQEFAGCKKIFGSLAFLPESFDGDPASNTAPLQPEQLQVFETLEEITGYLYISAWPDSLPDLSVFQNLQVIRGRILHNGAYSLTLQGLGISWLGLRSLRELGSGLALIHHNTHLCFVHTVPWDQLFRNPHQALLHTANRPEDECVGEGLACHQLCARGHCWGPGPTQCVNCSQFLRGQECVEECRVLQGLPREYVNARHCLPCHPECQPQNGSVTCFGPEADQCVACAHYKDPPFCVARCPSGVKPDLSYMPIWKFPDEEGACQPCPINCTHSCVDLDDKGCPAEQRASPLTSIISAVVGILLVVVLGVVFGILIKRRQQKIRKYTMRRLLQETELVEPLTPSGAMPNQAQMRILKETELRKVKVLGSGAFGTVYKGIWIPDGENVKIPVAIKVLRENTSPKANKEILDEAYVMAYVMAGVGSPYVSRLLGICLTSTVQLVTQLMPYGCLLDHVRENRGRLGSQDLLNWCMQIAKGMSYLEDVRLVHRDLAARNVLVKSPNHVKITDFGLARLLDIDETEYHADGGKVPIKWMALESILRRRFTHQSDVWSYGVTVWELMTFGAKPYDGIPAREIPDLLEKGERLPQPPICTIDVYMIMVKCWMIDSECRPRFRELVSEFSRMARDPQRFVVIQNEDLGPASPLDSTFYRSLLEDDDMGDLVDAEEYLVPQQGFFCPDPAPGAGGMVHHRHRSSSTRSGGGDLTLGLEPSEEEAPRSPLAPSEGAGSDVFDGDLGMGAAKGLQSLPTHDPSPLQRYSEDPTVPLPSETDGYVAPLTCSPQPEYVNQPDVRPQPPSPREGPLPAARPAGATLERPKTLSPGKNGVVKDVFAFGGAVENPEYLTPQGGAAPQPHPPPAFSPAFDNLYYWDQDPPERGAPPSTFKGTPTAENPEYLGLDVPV
T2 sequence (P00533 25-1210): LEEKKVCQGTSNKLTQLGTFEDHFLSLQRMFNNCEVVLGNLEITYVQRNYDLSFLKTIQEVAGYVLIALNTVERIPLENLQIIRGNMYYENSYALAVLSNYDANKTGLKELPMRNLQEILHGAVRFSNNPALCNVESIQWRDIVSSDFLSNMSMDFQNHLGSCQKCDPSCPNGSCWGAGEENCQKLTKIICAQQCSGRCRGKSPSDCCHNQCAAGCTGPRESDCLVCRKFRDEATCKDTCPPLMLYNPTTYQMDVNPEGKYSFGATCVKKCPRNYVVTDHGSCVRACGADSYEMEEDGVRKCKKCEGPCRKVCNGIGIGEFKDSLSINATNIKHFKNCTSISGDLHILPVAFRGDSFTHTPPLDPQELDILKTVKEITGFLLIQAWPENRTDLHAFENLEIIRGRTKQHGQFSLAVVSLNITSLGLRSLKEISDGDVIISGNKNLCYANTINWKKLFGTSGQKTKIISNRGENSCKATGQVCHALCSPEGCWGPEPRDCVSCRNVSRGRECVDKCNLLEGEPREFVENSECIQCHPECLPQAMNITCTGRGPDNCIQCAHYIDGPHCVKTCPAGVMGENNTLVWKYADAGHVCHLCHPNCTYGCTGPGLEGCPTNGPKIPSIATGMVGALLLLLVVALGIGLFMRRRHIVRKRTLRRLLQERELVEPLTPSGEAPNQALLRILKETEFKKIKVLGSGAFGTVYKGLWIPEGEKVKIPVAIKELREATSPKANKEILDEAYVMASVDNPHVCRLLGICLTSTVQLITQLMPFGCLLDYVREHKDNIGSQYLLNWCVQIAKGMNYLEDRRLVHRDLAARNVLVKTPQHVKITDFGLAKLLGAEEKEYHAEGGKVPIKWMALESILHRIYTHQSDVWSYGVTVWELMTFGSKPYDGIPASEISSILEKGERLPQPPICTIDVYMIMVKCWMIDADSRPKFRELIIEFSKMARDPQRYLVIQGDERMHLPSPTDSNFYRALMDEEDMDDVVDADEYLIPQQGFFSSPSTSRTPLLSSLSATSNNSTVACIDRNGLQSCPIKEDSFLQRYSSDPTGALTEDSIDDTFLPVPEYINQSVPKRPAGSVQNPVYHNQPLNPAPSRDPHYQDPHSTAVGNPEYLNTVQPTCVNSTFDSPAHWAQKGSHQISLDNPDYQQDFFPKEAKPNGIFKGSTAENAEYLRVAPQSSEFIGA

CN(C)C/C=C/C(=O)N1CCN2c3ccc4ncnc(Nc5cc(F)c(Oc6ccn7ncnc7c6)cc5F)c4c3OC[C@@H]2C1 [Compound 98, (S,E)-1-(4-((4-([1,2,4]triazolo[1,5-a]pyridin-7-yloxy)-2,5-difluorophenyl)amino)-6a,7,9,10-tetrahydropyrazino[1′,2′:4,5][1,4]oxazino[2,3-f]quinazolin-8(6H)-yl)-4-(dimethylamino)but-2-en-1-one]
GI50 [1]: 0.0166 µM
IC50 [2]: 0.06 µM
IC50 [3]: > 10 µM

Cc1cc(Nc2ncnc3ccc4c(c23)OC[C@H]2CN4CCN2)ccc1Oc1ccn2ncnc2c1 [Compound 51, (3R)—N-(4-([1,2,4]triazolo[1,5-a]pyridin-7-yloxy)-3-methylphenyl)-3,4,5,6-tetrahydro-2H-3,7-methano[1,4,7]oxadiazonino[2,3-f]quinazolin-13-amine]
GI50 [1]: > 0.5 µM
IC50 [2]: 0.128 µM
IC50 [3]: > 10 µM

Cc1ccc(Oc2ccc(Nc3ncnc4ccc5c(c34)OC[C@H]3CN5CCN3C(=O)/C=C/CN(C)C)cc2C)cn1 [Compound 84, (E)-4-(dimethylamino)-1-((3R)-13-((3-methyl-4-((6-methylpyridin-3-yl)oxy)phenyl)amino)-2,3,5,6-tetrahydro-4H-3,7-methano[1,4,7]oxadiazonino[2,3-f]quinazolin-4-yl)but-2-en-1-one]
GI50 [1]: 0.00295 µM
IC50 [2]: 0.0146 µM
IC50 [3]: 0.0601 µM

C=CC(=O)N1CCN2c3ccc4ncnc(Nc5ccc(Oc6ccn7ncnc7c6)c(C)c5)c4c3OC[C@H]2C1 [Compound 6, (R)-1-(4-((4-([1,2,4]triazolo[1,5-a]pyridin-7-yloxy)-3-methylphenyl)amino)-6a,7,9,10-tetrahydropyrazino[1′,2′:4,5][1,4]oxazino[2,3-f]quinazolin-8(6H)-yl)prop-2-en-1-one]
GI50 [1]: 0.00623 µM
IC50 [2]: 0.00719 µM
IC50 [3]: 0.54 µM

C=CC(=O)N1CCN2c3nc4c(Nc5ccc(Oc6ccn7ncnc7c6)c(C)c5)ncnc4cc3OC[C@H]2C1 [Compound 2, (R)-1-(11-((4-([1,2,4]triazolo[1,5-a]pyridin-7-yloxy)-3-methylphenyl)amino)-1,2,4a,5-tetrahydropyrazino[1,2-d]pyrimido[4′,5′:5,6]pyrido[3,2-b][1,4]oxazin-3(4H)-yl)prop-2-en-1-one]
GI50 [1]: 0.00454 µM
IC50 [2]: 0.00897 µM
IC50 [3]: 0.421 µM

CN(C)C/C=C/C(=O)N1CCN2C[C@@H]1COc1c2ccc2ncnc(Nc3cc(F)c(Oc4ccn5ncnc5c4)cc3F)c12 [Compound 96, (E)-1-((3R)-13-((4-([1,2,4]triazolo[1,5-a]pyridin-7-yloxy)-2,5-difluorophenyl)amino)-2,3,5,6-tetrahydro-4H-3,7-methano[1,4,7]oxadiazonino[2,3-f]quinazolin-4-yl)-4-(dimethylamino)but-2-en-1-one]
GI50 [1]: 0.00912 µM
IC50 [2]: 0.0191 µM
IC50 [3]: 0.221 µM

Cc1cc(Nc2ncnc3cnc4c(c23)OC[C@H]2CN(C(=O)/C=C/CN(C)C)CCN42)c(F)cc1Oc1ccn2ncnc2c1 [Compound 117, (R,E)-1-(4-((4-([1,2,4]triazolo[1,5-a]pyridin-7-yloxy)-2-fluoro-5-methylphenyl)amino)-6a,7,9,10-tetrahydropyrazino[1,2-d]pyrimido[5′,4′:4,5]pyrido[3,2-b][1,4]oxazin-8(6H)-yl)-4-(dimethylamino)but-2-en-1-one]
GI50 [1]: 0.00657 µM
IC50 [2]: 0.0131 µM
IC50 [3]: 1.51 µM

C=CC(=O)N1CCN2C[C@@H]1COc1c2ccc2ncnc(Nc3ccc(Oc4ccn5ncnc5c4)c(C)c3)c12 [Compound 25, 1-((3R)-13-((4-([1,2,4]triazolo[1,5-a]pyridin-7-yloxy)-3-methylphenyl)amino)-2,3,5,6-tetrahydro-4H-3,7-methano[1,4,7]oxadiazonino[2,3-f]quinazolin-4-yl)prop-2-en-1-one]
GI50 [1]: 0.0155 µM
IC50 [2]: 0.0115 µM
IC50 [3]: 1.58 µM

C=CC(=O)N1CCN2c3nc4c(Nc5ccc(Oc6ccc7c(c6)ncn7C)c(C)c5)ncnc4cc3OC[C@H]2C1 [Compound 8, (R)-1-(11-((3-methyl-4-((1-methyl-1H-benzo[d]imidazol-5-yl)oxy)phenyl)amino)-1,2,4a,5-tetrahydropyrazino[1,2-d]pyrimido[4′,5′:5,6]pyrido[3,2-b][1,4]oxazin-3(4H)-yl)prop-2-en-1-one]
GI50 [1]: 0.0133 µM
IC50 [2]: 0.0181 µM
IC50 [3]: 0.643 µM

Cc1c(Oc2ccn3ncnc3c2)ccc(Nc2ncnc3ccc4c(c23)OC[C@@H]2CN(C(=O)/C=C/CN(C)C)CCN42)c1F [Compound 93, (S,E)-1-(4-((4-([1,2,4]triazolo[1,5-a]pyridin-7-yloxy)-2-fluoro-3-methylphenyl)amino)-6a,7,9,10-tetrahydropyrazino[1′,2′:4,5][1,4]oxazino[2,3-f]quinazolin-8(6H)-yl)-4-(dimethylamino)but-2-en-1-one]
GI50 [1]: 0.00775 µM
IC50 [2]: 0.0181 µM
IC50 [3]: 0.308 µM

C=CC(=O)N1CCN2c3cc4c(Nc5ccc(Oc6ccn7ncnc7c6)c(C)c5)ncnc4cc3OC[C@H]2C1 [Compound 4, (R)-1-(11-((4-([1,2,4]triazolo[1,5-a]pyridin-7-yloxy)-3-methylphenyl)amino)-1,2,4a,5-tetrahydropyrazino[1′,2′:4,5][1,4]oxazino[3,2-g]quinazolin-3(4H)-yl)prop-2-en-1-one]
GI50 [1]: 0.0624 µM
IC50 [2]: 0.0141 µM
IC50 [3]: 1.33 µM

Cc1cc(Nc2ncnc3ccc4c(c23)OC[C@H]2CN4CCN2C(=O)/C=C/[C@H](C)N(C)C)c(F)cc1Oc1ccn2ncnc2c1 [Compound 91, (4S,E)-1-((3R)-13-((4-([1,2,4]triazolo[1,5-a]pyridin-7-yloxy)-2-fluoro-5-methylphenyl)amino)-2,3,5,6-tetrahydro-4H-3,7-methano[1,4,7]oxadiazonino[2,3-f]quinazolin-4-yl)-4-(dimethylamino)pent-2-en-1-one triformate]
GI50 [1]: 0.164 µM
IC50 [2]: 0.147 µM
IC50 [3]: > 10 µM

Cc1cc(Nc2ncnc3ccc4c(c23)OC[C@H]2CN4CCN2C(=O)/C=C/C2CN(C)C2)ccc1Oc1ccn2ncnc2c1 [Compound 80, (E)-1-((3R)-13-((4-([1,2,4]triazolo[1,5-a]pyridin-7-yloxy)-3-methylphenyl)amino)-2,3,5,6-tetrahydro-4H-3,7-methano[1,4,7]oxadiazonino[2,3-f]quinazolin-4-yl)-3-(1-methylazetidin-3-yl)prop-2-en-1-one]
GI50 [1]: 0.0772 µM
IC50 [2]: 0.0228 µM
IC50 [3]: 0.701 µM

C=CC(=O)N1CCN2c3ccc4ncnc(Nc5ccc(Oc6ccn7ncnc7c6)c(C)c5)c4c3OC[C@@H]2C1 [Compound 5, (S)-1-(4-((4-([1,2,4]triazolo[1,5-a]pyridin-7-yloxy)-3-methylphenyl)amino)-6a,7,9,10-tetrahydropyrazino[1′,2′:4,5][1,4]oxazino[2,3-f]quinazolin-8(6H)-yl)prop-2-en-1-one]
GI50 [1]: 0.00462 µM
IC50 [2]: 0.00789 µM
IC50 [3]: 0.517 µM

Cc1cc(Nc2ncnc3ccc4c(c23)OC[C@H]2COCCN42)ccc1Oc1ccn2ncnc2c1 [Compound 85, (R)—N-(4-([1,2,4]triazolo[1,5-a]pyridin-7-yloxy)-3-methylphenyl)-6a,7,9,10-tetrahydro-6H-[1,4]oxazino[4′,3′:4,5][1,4]oxazino[2,3-f]quinazolin-4-amine]
GI50 [1]: 0.181 µM
IC50 [2]: 0.0172 µM
IC50 [3]: > 10 µM

Cc1cc(Nc2ncnc3cc4c(nc23)N2CCN(C(=O)/C=C/CN(C)C)C[C@@H]2CO4)ccc1Oc1ccn2ncnc2c1 [Compound 15, (R,E)-1-(11-((4-([1,2,4]triazolo[1,5-a]pyridin-7-yloxy)-3-methylphenyl)amino)-1,2,4a,5-tetrahydropyrazino[1,2-d]pyrimido[4′,5′:5,6]pyrido[3,2-b][1,4]oxazin-3(4H)-yl)-4-(dimethylamino)but-2-en-1-one]
GI50 [1]: 0.00489 µM
IC50 [2]: 0.00693 µM
IC50 [3]: 0.284 µM
